# From article doi:10.1101/2025.01.28.635346v1 (bioRxiv, 2025)
# Bridge positions count the residues as written; N and C are the ends. Peptide text beside a SMILES is read from it.
# Legend:
# integrin αvβ8 [1] = target: T1, integrin αvβ8 (Homo sapiens, UniProt P06756+P26012); experiment: AlphaLISA competition assay vs LAP, biotinylated αvβ8; format: binding
# integrin αvβ6 [2] = target: T2, integrin αvβ6 (Homo sapiens, UniProt P06756+P18564); experiment: AlphaLISA competition assay vs LAP, biotinylated αvβ6; format: binding
# integrin αvβ8 [3] = target: T1, integrin αvβ8; experiment: ELISA competition assay, integrin αvβ8 binding to LAP
# integrin αvβ6 [4] = target: T2, integrin αvβ6; experiment: ELISA competition assay, integrin αvβ6 binding to LAP
# [5] = αvβ6 IC50, ELISA competition vs LAP, mean, n ≥ 3
IC50 (integrin αvβ6 [4]),Structure (SMILES),IC50 (integrin αvβ8 [1]),IC50 (integrin αvβ6 [2]),IC50 (integrin αvβ8 [3]),IC50 (integrin αvβ6 [4]; [5])
,CC[C@H](C)[C@H](NC(=O)[C@@H]1CCCN1C(=O)[C@H](C)NC(=O)[C@H](CC(=O)O)NC(=O)CNC(=O)[C@H](CCCNC(=N)N)NC(=O)[C@@H](NC(=O)[C@H](Cc1ccccc1)NC(=O)[C@H](Cc1ccc(O)cc1)NC(=O)[C@@H]1CCC(=O)NCC(=O)NCC(=O)N[C@@H](C)C(=O)NCC(=O)N[C@@H](Cc2c[nH]cn2)C(=O)N[C@@H](C(C)C)C(=O)N2CCC[C@H]2C(=O)N1)C(C)C)C(=O)N[C@@H](CO)C(=O)N[C@@H](Cc1ccccc1)C(=O)N[C@@H](Cc1ccc(O)cc1)C(=O)NCC(=O)O [lassotide 4] (GGAGHVPEYFVRGDAPISFYG-OH; lactam N-8; C-terminus assumed),109 nM,436 nM,,
,CC[C@H](C)[C@H](NC(=O)[C@@H]1CCCN1C(=O)[C@H](CCSC)NC(=O)[C@H](CC(=O)O)NC(=O)CNC(=O)[C@H](CCCNC(=N)N)NC(=O)[C@@H](NC(=O)[C@H](Cc1ccccc1)NC(=O)[C@H](Cc1ccc(O)cc1)NC(=O)[C@@H]1CCC(=O)NCC(=O)NCC(=O)N[C@@H](C)C(=O)NCC(=O)N[C@@H](Cc2c[nH]cn2)C(=O)N[C@@H](C(C)C)C(=O)N2CCC[C@H]2C(=O)N1)C(C)C)C(=O)N[C@@H](CO)C(=O)N[C@@H](Cc1ccccc1)C(=O)N[C@@H](Cc1ccc(O)cc1)C(=O)NCC(=O)O [lassotide 5] (GGAGHVPEYFVRGDMPISFYG-OH; lactam N-8; C-terminus assumed),259 nM,280 nM,,
,CC[C@H](C)[C@H](NC(=O)[C@H](CC(C)C)NC(=O)[C@H](CC(=O)O)NC(=O)CNC(=O)[C@H](CCCNC(=N)N)NC(=O)[C@@H](NC(=O)[C@H](Cc1ccccc1)NC(=O)[C@H](Cc1ccc(O)cc1)NC(=O)[C@@H]1CCC(=O)NCC(=O)NCC(=O)N[C@@H]([C@@H](C)O)C(=O)NCC(=O)N[C@@H](Cc2c[nH]cn2)C(=O)N[C@@H](C(C)C)C(=O)N2CCC[C@H]2C(=O)N1)C(C)C)C(=O)N[C@@H](CO)C(=O)N[C@@H](Cc1ccccc1)C(=O)N[C@@H](Cc1ccc(O)cc1)C(=O)NCC(=O)O [lassotide 34] (GGTGHVPEYFVRGDLISFYG-OH; lactam N-8; C-terminus assumed),,,28 nM,44 nM
,CC(C)C[C@H](NC(=O)[C@H](CC(=O)O)NC(=O)CNC(=O)[C@H](CCCNC(=N)N)NC(=O)[C@@H](NC(=O)[C@H](Cc1ccccc1)NC(=O)[C@H](Cc1ccc(O)cc1)NC(=O)[C@@H]1CCC(=O)NCC(=O)NCC(=O)N[C@@H](CCCNC(=N)N)C(=O)NCC(=O)N[C@@H](CO)C(=O)N[C@@H](C(C)C)C(=O)N2CCC[C@H]2C(=O)N1)C(C)C)C(=O)N[C@@H](CCC(N)=O)C(=O)N[C@@H](CO)C(=O)N[C@@H](Cc1ccccc1)C(=O)N[C@@H](Cc1ccc(O)cc1)C(=O)NCC(=O)O [lassotide 39] (GGRGSVPEYFVRGDLQSFYG-OH; lactam N-8; C-terminus assumed),,,5.1 nM,3.1 nM
,CC(C)C[C@H](NC(=O)[C@H](CC(=O)O)NC(=O)CNC(=O)[C@H](CCCNC(=N)N)NC(=O)[C@@H](NC(=O)[C@H](Cc1ccccc1)NC(=O)[C@H](Cc1ccc(O)cc1)NC(=O)[C@@H]1CCC(=O)NCC(=O)NCC(=O)N[C@@H](CCCNC(=N)N)C(=O)NCC(=O)N[C@@H](CCC(N)=O)C(=O)N[C@@H](C(C)C)C(=O)N2CCC[C@H]2C(=O)N1)C(C)C)C(=O)N[C@@H](CCC(N)=O)C(=O)N[C@@H](CO)C(=O)N[C@@H](Cc1ccccc1)C(=O)N[C@@H](Cc1ccc(O)cc1)C(=O)NCC(=O)O [lassotide 40] (GGRGQVPEYFVRGDLQSFYG-OH; lactam N-8; C-terminus assumed),,,2.6 nM,2 nM
,CC[C@H](C)[C@@H]1NC(=O)[C@H](CO)NC(=O)CNC(=O)[C@H](CCCNC(=N)N)NC(=O)CNC(=O)CNC(=O)CC[C@@H](C(=O)N[C@@H](Cc2ccc(O)cc2)C(=O)N[C@@H](Cc2ccccc2)C(=O)N[C@H](C(=O)N[C@@H](CCCNC(=N)N)C(=O)NCC(=O)N[C@@H](CC(=O)O)C(=O)N[C@@H](CC(C)C)C(=O)N[C@@H](CCC(N)=O)C(=O)N[C@@H](CO)C(=O)N[C@@H](Cc2ccccc2)C(=O)N[C@@H](Cc2ccc(O)cc2)C(=O)NCC(=O)O)C(C)C)NC(=O)[C@@H]2CCCN2C1=O [lassotide 41] (GGRGSIPEYFVRGDLQSFYG-OH; lactam N-8; C-terminus assumed),,,5.8 nM,1.4 nM
,CC[C@H](C)[C@@H]1NC(=O)[C@H](CCC(N)=O)NC(=O)CNC(=O)[C@H](CCCNC(=N)N)NC(=O)CNC(=O)CNC(=O)CC[C@@H](C(=O)N[C@@H](Cc2ccc(O)cc2)C(=O)N[C@@H](Cc2ccccc2)C(=O)N[C@H](C(=O)N[C@@H](CCCNC(=N)N)C(=O)NCC(=O)N[C@@H](CC(=O)O)C(=O)N[C@@H](CC(C)C)C(=O)N[C@@H](CCC(N)=O)C(=O)N[C@@H](CO)C(=O)N[C@@H](Cc2ccccc2)C(=O)N[C@@H](Cc2ccc(O)cc2)C(=O)NCC(=O)O)C(C)C)NC(=O)[C@@H]2CCCN2C1=O [lassotide 42] (GGRGQIPEYFVRGDLQSFYG-OH; lactam N-8; C-terminus assumed),,,2.5 nM,3 nM
,CC[C@H](C)[C@@H]1NC(=O)[C@H](CO)NC(=O)CNC(=O)[C@H](CCCNC(=N)N)NC(=O)CNC(=O)CNC(=O)CC[C@@H](C(=O)N[C@@H](Cc2ccc(O)cc2)C(=O)N[C@@H](Cc2ccccc2)C(=O)N[C@H](C(=O)N[C@@H](CCCNC(=N)N)C(=O)NCC(=O)N[C@@H](CC(=O)O)C(=O)N[C@@H](CC(C)C)C(=O)N[C@@H](CCC(N)=O)C(=O)N[C@@H](CO)C(=O)N[C@@H](Cc2ccccc2)C(=O)N[C@@H](Cc2ccc(O)cc2)C(=O)N[C@@H](CCCCN)C(=O)O)C(C)C)NC(=O)[C@@H]2CCCN2C1=O [lassotide 43] (GGRGSIPEYFVRGDLQSFYK-OH; lactam N-8; C-terminus assumed),,,5.1 nM,1.2 nM
0.7 nM,CC(C)C[C@H](NC(=O)[C@H](CC(=O)O)NC(=O)CNC(=O)[C@H](CCCNC(=N)N)NC(=O)[C@H](CCC(N)=O)NC(=O)[C@H](Cc1ccccc1)NC(=O)[C@H](Cc1ccc(O)cc1)NC(=O)[C@@H]1CCC(=O)NCC(=O)NCC(=O)N[C@@H]([C@@H](C)O)C(=O)NCC(=O)N[C@@H](Cc2c[nH]cn2)C(=O)N[C@@H](C(C)C)C(=O)N2CCC[C@H]2C(=O)N1)C(=O)N[C@@H](CCC(N)=O)C(=O)N[C@@H](CO)C(=O)N[C@@H](Cc1ccccc1)C(=O)N[C@@H](Cc1ccc(O)cc1)C(=O)NCC(=O)O [lassotide 45] (GGTGHVPEYFQRGDLQSFYG-OH; lactam N-8; C-terminus assumed),,,1 nM,
,CC[C@H](C)[C@@H]1NC(=O)[C@H](Cc2c[nH]cn2)NC(=O)CNC(=O)[C@H]([C@@H](C)O)NC(=O)CNC(=O)CNC(=O)CC[C@@H](C(=O)N[C@@H](Cc2ccc(O)cc2)C(=O)N[C@@H](Cc2ccccc2)C(=O)N[C@@H](CCC(N)=O)C(=O)N[C@@H](CCCNC(=N)N)C(=O)NCC(=O)N[C@@H](CC(=O)O)C(=O)N[C@@H](CC(C)C)C(=O)N[C@@H](CCC(N)=O)C(=O)N[C@@H](CO)C(=O)N[C@@H](Cc2ccccc2)C(=O)N[C@@H](Cc2ccc(O)cc2)C(=O)NCC(=O)O)NC(=O)[C@@H]2CCCN2C1=O [lassotide 46] (GGTGHIPEYFQRGDLQSFYG-OH; lactam N-8; C-terminus assumed),,,1.3 nM,2.1 nM
